The text below walks through data of US6423707B1, “Nitroimidazole ester analogues and therapeutic applications” (California Pacific Medical Center, priority 2000, dated 2002).

Data set [1] concerns metronidazole resistant H. pylori isolate (ATCC strain 43579). Nature of the data set: Helicobacter pylori microbicidal assay (Example 12). It counts as cell-based. As to conditions: for MBC: Helicobacter pylori.
Data set [2] has as its system Ohio State university Helicobactor pylori isolate working seed lot #061697. The data set is described as follows: microbe, parasite or virus in culture. The class given is cell-based. Conditions: Helicobacter pylori, 72 h, read-out: MBC OSU Isolate 061697.
Data set [3] concerns Helicobactor pylori ATCC strain 43579. Nature of the data set: microbe, parasite or virus in culture. The class given is cell-based. As to conditions: Helicobacter pylori, ATCC43579, 72 h, read-out: MBC H. Pylori 43579.
Data set [4] deals with another H pylori isolate (a virulent human isolate used in the germ-free pig model). Nature of the data set: microbe, parasite or virus in culture. The class given is cell-based. As to conditions: Helicobacter pylori.
Setting [5] is: ATCC43579, 72 h, read-out: MBC (Minimal Bactericidal Concentration), lowest concentration that killed 100% of the H. pylori working solution, ATCC strain 43579, metronidazole-resistant, 72 hours.
Setting [6] is: relative to positive control (=1), ATCC strain 43579.
Setting [7] is: ATCC43579, 72 h, read-out: MBC (Minimal Bactericidal Concentration).
Where [8] appears, read: ATCC43579, lowest concentration that killed 100% of the H. pylori working solution, ATCC strain 43579, metronidazole-resistant, 72 hours, read-out: MBC (Minimal Bactericidal Concentration).

≈ marks a conversion by molar mass, not a printed value. Like-named read-outs stand apart in the source and are kept apart here.

Consider “2-Methyl-5-nitro-1H-imidazole-1-ethyl 9,10-dihydro-9,10-dioxo-2-anthracenecarboxylate [Formula 9]”, for which, in data set [1], the “Bactericidal Activity Index” value stood at 7.4 and the “MBC (Minimal Bactericidal Concentration)” value worked out at 12 µg/mL.

Consider “2-Methyl-5-nitro-1H-imidazole-1-ethyl 9-oxo-9H-thioxanthene-3-carboxylate [Formula 6]”, for which, in data set [1], the “Bactericidal Activity Index” value was found to be 6.4 and the “MBC (Minimal Bactericidal Concentration)” value is 14 µg/mL.

“2-methyl-5-nitro-1H-imidazole-1-ethyl 1-ethyl-1,4-dihydro-7-methyl-4-oxo-1,8-naphthyridine-3-carboxylate [Formula 10]”: in data set [1], the “Bactericidal Activity Index” value worked out at 12.7 and the “MBC (Minimal Bactericidal Concentration)” value came out at 7 µg/mL.

With `Cc1ncc([N+](=O)[O-])n1CCOC(=O)c1cccnc1` [Formula 1C, 2-Methyl-5-nitro-1H-imidazole-1-ethyl Nicotinate], the figures for the MBC in data set [1] (setting [5]), in data set [2] and in data set [3] were 4 µg/mL, 22.3 µg/mL and 22.3 µg/mL, respectively. Moreover, the “MBC (Minimal Bactericidal Concentration)” value in data set [1] (lowest concentration that killed 100% of the H. pylori working solution, ATCC strain 43579, metronidazole-resistant, 72 hours) turned out to be 5 µg/mL. Moreover, in data set [1] (setting [6]), the “Bactericidal Activity Index” value was 17.8.

One may read the melting point as the temperature, or range, at which the solid turns liquid. With `Cc1ncc([N+](=O)[O-])n1CCOC(=O)c1ccc([N+](=O)[O-])o1` [Formula 2C, 2-Methyl-5-nitro-1H-imidazole-1-ethyl 5-nitro-2-furoate], the melting point lay within 150 to 152 °C. The “Bactericidal Activity Index” value in data set [1] is 29.7. In addition, the MBC in data set [1] (setting [7]) was found to be 3 µg/mL. In addition, the MBC in data set [2] was determined as 12.6 µg/mL. Also, in data set [3], the MBC turned out to be 12.6 µg/mL.

As to `Cc1ncc([N+](=O)[O-])n1CCOC(=O)c1cc(C(=O)OCCn2c([N+](=O)[O-])cnc2C)cc([N+](=O)[O-])c1` [Formula 3C, Di (2-methyl-5-nitro-1H-imidazole-1-ethyl) 5-nitro-1,3-benzenedicarboxylate], the “Bactericidal Activity Index” value in data set [1] amounted to 29.7. The MBC in data set [1] (setting [7]) was 3 µg/mL; in data set [2], 19.8 µg/mL; in data set [3] it was 19.8 µg/mL.

In the case of `Cc1ncc([N+](=O)[O-])n1CCOC(=O)c1cc(-c2ccccc2)nc2ccccc12` [Formula 4C, 2-Methyl-5-nitro-1H-imidazole-1-ethyl 2-phenyl-4-quinolinecarboxylate], the melting point lay within 122 to 124 °C. The MBC in data set [1] (setting [5]) was determined as 2 µg/mL. Moreover, the “Bactericidal Activity Index” value in data set [1] (setting [6]) worked out at 45. For the same molecule, the MBC in data set [4] was found to be 10.2 µg/mL. The MBC in data set [2] came to 20.5 µg/mL. Moreover, in data set [3], the MBC worked out at 10.3 µg/mL.

As for `Cc1ncc([N+](=O)[O-])n1CCOC(=O)N1c2ccccc2Sc2ccccc21` [Formula 5C, 2-Methyl-5-nitro-1H-imidazole-1-ethyl phenothiazine-10-carboxylate], the MBC came out at 2 µg/mL in data set [1] (setting [5]), 10.2 µg/mL in data set [4], 10.3 µg/mL in data set [2] and 10.3 µg/mL in data set [3]. Also, the “Bactericidal Activity Index” value in data set [1] (setting [6]) was determined as 44.5.

For the molecule `Cc1ncc([N+](=O)[O-])n1CCOC(=O)c1cc(=O)c2ccccc2o1` [Formula 7, 2-Methyl-5-nitro-1H-imidazole-1-ethyl 4-oxo-4H-1-benzopyran-2-carboxylate], the melting point is 210 to 212 °C (dec.). The MBC in data set [1] (setting [8]) was determined as 10 µg/mL. The “Bactericidal Activity Index” value in data set [1] (setting [6]) is 8.9.

As for `Cc1ncc([N+](=O)[O-])n1CCOC(=O)c1ccc(-c2ccc(Cl)cc2[N+](=O)[O-])o1` [Formula 13], the MBC in data set [1] (setting [7]) is more than 97 µg/mL.

For `CCn1cc(C(=O)OCCn2c([N+](=O)[O-])cnc2C)c(=O)c2ccc(C)nc21` [Formula 15], the MBC in data set [1] (setting [8]) was 15 µg/mL. The “Bactericidal Activity Index” value in data set [1] (setting [6]) worked out at 8.9.

`Cc1ncc([N+](=O)[O-])n1CCO` [Positive Control, metronidazole, reference compound]: the MBC in data set [1] (setting [8]) was determined as 89 µg/mL (≈ 520 µM). In addition, in data set [1] (setting [6]), the “Bactericidal Activity Index” value is reported as 1.
